Assay: mn = molality of the nth substance listed, in mol/kg
Details: 100 kPa, Liquid; for electrical conductivity: Alternating current cell with electrodes; for speed of sound: Frequency=3 MHz, Sing-around technique in a fixed-path interferometer; for mass density: Vibrating tube method

CCCCn1cc[n+](C)c1C.F[B-](F)(F)F [1-butyl-2,3-dimethylimidazolium tetrafluoroborate] + O
Details | electrical conductivity [S/m] | mass density [kg/m3] | speed of sound [m/s]
288.15 K, m1 = 0.03 | 0.229 | – | –
288.15 K, m1 = 0.0308 | – | 1000.29 | 1471.8
288.15 K, m1 = 0.0312 | 0.236 | – | –
288.15 K, m1 = 0.0324 | 0.245 | – | –
288.15 K, m1 = 0.0338 | 0.256 | – | –
288.15 K, m1 = 0.0353 | 0.265 | – | –
288.15 K, m1 = 0.0369 | 0.276 | – | –
288.15 K, m1 = 0.0386 | 0.288 | – | –
288.15 K, m1 = 0.0406 | 0.303 | – | –
288.15 K, m1 = 0.04107 | – | 1000.68 | 1474.2
288.15 K, m1 = 0.0427 | 0.319 | – | –
288.15 K, m1 = 0.0451 | 0.336 | – | –
288.15 K, m1 = 0.0477 | 0.355 | – | –
288.15 K, m1 = 0.0507 | 0.375 | – | –
288.15 K, m1 = 0.05137 | – | 1001.08 | 1476.5
288.15 K, m1 = 0.0541 | 0.399 | – | –
288.15 K, m1 = 0.058 | 0.427 | – | –
288.15 K, m1 = 0.06162 | – | 1001.46 | 1478.6
288.15 K, m1 = 0.0624 | 0.457 | – | –
288.15 K, m1 = 0.0677 | 0.491 | – | –
288.15 K, m1 = 0.07 | 0.508 | – | –
288.15 K, m1 = 0.0725 | 0.526 | – | –
288.15 K, m1 = 0.0752 | 0.542 | – | –
288.15 K, m1 = 0.0781 | 0.564 | – | –
288.15 K, m1 = 0.0812 | 0.586 | – | –
288.15 K, m1 = 0.08198 | – | 1002.23 | 1482.5
288.15 K, m1 = 0.0846 | 0.608 | – | –
288.15 K, m1 = 0.0882 | 0.634 | – | –
288.15 K, m1 = 0.0922 | 0.661 | – | –
288.15 K, m1 = 0.0966 | 0.688 | – | –
288.15 K, m1 = 0.1014 | 0.713 | – | –
288.15 K, m1 = 0.1024 | – | 1002.99 | 1485.2
288.15 K, m1 = 0.1068 | 0.745 | – | –
288.15 K, m1 = 0.1127 | 0.772 | – | –
288.15 K, m1 = 0.1193 | 0.806 | – | –
288.15 K, m1 = 0.1231 | – | 1003.74 | 1486.4
288.15 K, m1 = 0.1267 | 0.846 | – | –
288.15 K, m1 = 0.1352 | 0.891 | – | –
288.15 K, m1 = 0.1436 | – | 1004.47 | 1487.1
288.15 K, m1 = 0.1448 | 0.941 | – | –
288.15 K, m1 = 0.1559 | 0.997 | – | –
288.15 K, m1 = 0.164 | – | 1005.19 | 1487.7
288.15 K, m1 = 0.1688 | 1.06 | – | –
288.15 K, m1 = 0.1841 | 1.14 | – | –
288.15 K, m1 = 0.1846 | – | 1005.91 | 1488.2
288.15 K, m1 = 0.2025 | 1.23 | – | –
288.15 K, m1 = 0.205 | – | 1006.62 | 1488.7
298.15 K, m1 = 0.0306 | 0.247 | – | –
298.15 K, m1 = 0.0308 | – | 998.165 | 1500.7
298.15 K, m1 = 0.031 | 0.249 | – | –
298.15 K, m1 = 0.0323 | 0.259 | – | –
298.15 K, m1 = 0.0337 | 0.27 | – | –
298.15 K, m1 = 0.0352 | 0.28 | – | –
298.15 K, m1 = 0.0368 | 0.291 | – | –
298.15 K, m1 = 0.0387 | 0.305 | – | –
298.15 K, m1 = 0.0407 | 0.319 | – | –
298.15 K, m1 = 0.04107 | – | 998.537 | 1502.3
298.15 K, m1 = 0.0429 | 0.334 | – | –
298.15 K, m1 = 0.0454 | 0.351 | – | –
298.15 K, m1 = 0.0472 | 0.366 | – | –
298.15 K, m1 = 0.0491 | 0.379 | – | –
298.15 K, m1 = 0.0513 | 0.395 | – | –
298.15 K, m1 = 0.05137 | – | 998.909 | 1504
298.15 K, m1 = 0.0536 | 0.413 | – | –
298.15 K, m1 = 0.0562 | 0.432 | – | –
298.15 K, m1 = 0.0575 | 0.441 | – | –
298.15 K, m1 = 0.059 | 0.45 | – | –
298.15 K, m1 = 0.0605 | 0.462 | – | –
298.15 K, m1 = 0.06162 | – | 999.277 | 1505.7
298.15 K, m1 = 0.0621 | 0.472 | – | –
298.15 K, m1 = 0.0637 | 0.485 | – | –
298.15 K, m1 = 0.0655 | 0.498 | – | –
298.15 K, m1 = 0.0674 | 0.513 | – | –
298.15 K, m1 = 0.0694 | 0.528 | – | –
298.15 K, m1 = 0.0715 | 0.54 | – | –
298.15 K, m1 = 0.0737 | 0.557 | – | –
298.15 K, m1 = 0.0761 | 0.575 | – | –
298.15 K, m1 = 0.0786 | 0.595 | – | –
298.15 K, m1 = 0.0813 | 0.615 | – | –
298.15 K, m1 = 0.08198 | – | 1000 | 1509
298.15 K, m1 = 0.0842 | 0.636 | – | –
298.15 K, m1 = 0.0874 | 0.658 | – | –
298.15 K, m1 = 0.0907 | 0.682 | – | –
298.15 K, m1 = 0.0943 | 0.708 | – | –
298.15 K, m1 = 0.0983 | 0.735 | – | –
298.15 K, m1 = 0.1024 | – | 1000.72 | 1511.6
298.15 K, m1 = 0.1026 | 0.761 | – | –
298.15 K, m1 = 0.1072 | 0.787 | – | –
298.15 K, m1 = 0.1123 | 0.816 | – | –
298.15 K, m1 = 0.1179 | 0.847 | – | –
298.15 K, m1 = 0.1231 | – | 1001.43 | 1512.3
298.15 K, m1 = 0.1242 | 0.881 | – | –
298.15 K, m1 = 0.1311 | 0.92 | – | –
298.15 K, m1 = 0.1388 | 0.962 | – | –
298.15 K, m1 = 0.1436 | – | 1002.11 | 1513
298.15 K, m1 = 0.1474 | 1.01 | – | –
298.15 K, m1 = 0.1573 | 1.06 | – | –
298.15 K, m1 = 0.164 | – | 1002.79 | 1513.5
298.15 K, m1 = 0.1685 | 1.12 | – | –
298.15 K, m1 = 0.1815 | 1.19 | – | –
298.15 K, m1 = 0.1846 | – | 1003.47 | 1514
298.15 K, m1 = 0.1966 | 1.27 | – | –
298.15 K, m1 = 0.205 | – | 1004.13 | 1514.6
298.15 K, m1 = 0.2145 | 1.35 | – | –
308.15 K, m1 = 0.0308 | – | 995.089 | 1523
308.15 K, m1 = 0.0309 | 0.278 | – | –
308.15 K, m1 = 0.032 | 0.287 | – | –
308.15 K, m1 = 0.0333 | 0.299 | – | –
308.15 K, m1 = 0.0347 | 0.305 | – | –
308.15 K, m1 = 0.0362 | 0.32 | – | –
308.15 K, m1 = 0.0379 | 0.331 | – | –
308.15 K, m1 = 0.0397 | 0.344 | – | –
308.15 K, m1 = 0.04107 | – | 995.443 | 1524.2
308.15 K, m1 = 0.0417 | 0.359 | – | –
308.15 K, m1 = 0.0439 | 0.378 | – | –
308.15 K, m1 = 0.0463 | 0.396 | – | –
308.15 K, m1 = 0.049 | 0.415 | – | –
308.15 K, m1 = 0.05137 | – | 995.796 | 1525.5
308.15 K, m1 = 0.0521 | 0.437 | – | –
308.15 K, m1 = 0.0556 | 0.462 | – | –
308.15 K, m1 = 0.0596 | 0.493 | – | –
308.15 K, m1 = 0.06162 | – | 996.146 | 1526.8
308.15 K, m1 = 0.0642 | 0.531 | – | –
308.15 K, m1 = 0.0695 | 0.568 | – | –
308.15 K, m1 = 0.0719 | 0.585 | – | –
308.15 K, m1 = 0.0745 | 0.603 | – | –
308.15 K, m1 = 0.0772 | 0.624 | – | –
308.15 K, m1 = 0.0802 | 0.649 | – | –
308.15 K, m1 = 0.08198 | – | 996.836 | 1529
308.15 K, m1 = 0.0834 | 0.673 | – | –
308.15 K, m1 = 0.0869 | 0.698 | – | –
308.15 K, m1 = 0.0906 | 0.727 | – | –
308.15 K, m1 = 0.0947 | 0.756 | – | –
308.15 K, m1 = 0.0992 | 0.788 | – | –
308.15 K, m1 = 0.1024 | – | 997.517 | 1531.1
308.15 K, m1 = 0.1042 | 0.819 | – | –
308.15 K, m1 = 0.1097 | 0.851 | – | –
308.15 K, m1 = 0.1158 | 0.883 | – | –
308.15 K, m1 = 0.1225 | 0.919 | – | –
308.15 K, m1 = 0.1231 | – | 998.186 | 1531.7
308.15 K, m1 = 0.1302 | 0.965 | – | –
308.15 K, m1 = 0.1388 | 1.01 | – | –
308.15 K, m1 = 0.1436 | – | 998.836 | 1532.1
308.15 K, m1 = 0.1487 | 1.07 | – | –
308.15 K, m1 = 0.1602 | 1.13 | – | –
308.15 K, m1 = 0.164 | – | 999.479 | 1532.5
308.15 K, m1 = 0.1735 | 1.2 | – | –
308.15 K, m1 = 0.1846 | – | 1000.13 | 1533
308.15 K, m1 = 0.1892 | 1.29 | – | –
308.15 K, m1 = 0.205 | – | 1000.75 | 1533.6
308.15 K, m1 = 0.208 | 1.4 | – | –
